Values quoted from earlier work as cited in US10627374B2, “LC-MS configuration for purification and detection of analytes having a broad range of hydrophobicites” (COHESIVE TECHNOLOGIES INC., priority 2010, dated 2020).
Like-named read-outs stand apart in the source and are kept apart here.

SMILES	logP (Table 2)	logP (Table 1)	log P (approximate)
O=c1[nH]cc(F)c(=O)[nH]1 [5-Fluorouracil]	−0.9	–	–
CS(=O)(=O)OCCCCOS(C)(=O)=O [Busulfan]	−1.15	−1.15	–
C[C@]12CCC(=O)C=C1CC[C@@H]1[C@@H]2[C@@H](O)C[C@@]2(C)[C@H]1CC[C@]2(O)C(=O)CO [Cortisol (hydrocortisone)]	1.26	1.26	–
CO[C@H]1C[C@@H]2CC[C@@H](C)[C@@](O)(O2)C(=O)C(=O)N2CCCC[C@H]2C(=O)O[C@H]([C@H](C)C[C@@H]2CC[C@@H](OCCO)[C@H](OC)C2)CC(=O)[C@H](C)/C=C(\C)[C@@H](O)[C@@H](OC)C(=O)[C@H](C)C[C@H](C)/C=C/C=C/C=C/1C [Everolimus]	5.01	5.01	about 5.01
CN(Cc1cnc2nc(N)nc(N)c2n1)c1ccc(C(=O)N[C@@H](CCC(=O)O)C(=O)O)cc1 [Methotrexate]	0.94	0.94	–
C[C@]12C=CC(=O)C=C1CC[C@@H]1[C@@H]2C(=O)C[C@@]2(C)[C@H]1CC[C@]2(O)C(=O)CO [Prednisone]	2.07	2.07	–
C=CC[C@@H]1/C=C(\C)C[C@H](C)C[C@H](OC)[C@H]2O[C@@](O)(C(=O)C(=O)N3CCCC[C@H]3C(=O)O[C@H](/C(C)=C/[C@@H]3CC[C@@H](O)[C@H](OC)C3)[C@H](C)[C@@H](O)CC1=O)[C@H](C)C[C@@H]2OC [Tacrolimus]	3.3	3.3	–
